Experimental data: patent US8017596B2, “Phosphonates useful as modulators of T-γ-9-δ-2 activity” (Innate Pharma, S.A., priority 2001, dated 2011)

How the values were obtained:
[1] = tested on: Vγ9/Vδ2 lymphocytes; experiment: Vγ9/Vδ2 lymphocyte expansion (flow cytometry immunofluorescence, anti-CD3 / anti-Vγ9); format: cell-based, human; conditions: PBMC after 5 days in culture, 100 μM; FIG. 2E-2L
Method: FIGS. 2A-2L. In order to verify selectivity with respect to Vγ9/Vδ2 lymphocytes of molecule activating potential, PBMCs, were cultured and analysed after 5 days of culture in the presence of various molecules by flow cytometry immunofluorescence. For this, the cells are retrieved, washed in PBS and then incubated in the presence of human anti-CD3 monoclonal antibodies conjugated with fluoroscein (FITC, FL1) and human anti-Vγ9 coupled with biotin and then detected with Streptavidine-phycoerythrin conjugate (ST-PE, FL2). The markings are produced by incubating for 30 minutes with 0.5 μg of each antibody per million cells. The analysis is performed after washing on a FACScalibur-SORT cell analyser-sorter cytofluorimeter (Becton Dickinson, Mountain View, CA). FIG. 2A gives the profile (size FSC and granularity SSC) of the cells studied. […] FIGS. 2D to 2L show a PBMC after 5 days in culture in the presence of the molecule tested. FIG. 2D: cells stimulated with 1μg/ml phytohaemagglutinin A (PHA). FIG. 2E: cells stimulated with 100μM isoprenylpyrophosphate (IPP). FIG. 2F: cells stimulated with 100μM 1-pyrophosphono-4-methylpenta-1,3-diene. FIG. 2G: cells stimulated with 100μM (E) 1-pyrophosphono-penta-1,3-diene. FIG. 2H: cells stimulated with 100μM (E) 1-pyrophosphono-buta-1,3-diene, FIG. 2I: cells stimulated with 100μM 5-pyrophosphono-2-methylpent-2-ene. FIG. 2J: cells stimulated with 100μM α,γ-di-[4-methylpent-4-enyl]-triphosphonate. FIG. 2K: cells stimulated with 100μM 5-pyrophosphono-2methylpentene. FIG. 2L: cells stimulated with 100μM 5-triphosphono-2-methylpentene.
In order to verify selectivity with respect to Vγ9/Vδ2 lymphocytes of the molecule activating potential, PBMCs, cultured under the conditions described above were analysed after 5 days of culture in the presence of various molecules by flow cytometry immunofluorescence. For this, the cells are retrieved, washed in PBS and then incubated in the presence of human anti-CD3 monoclonal antibodies conjugated with fluoroscein (FITC, FL1) and human anti-Vγ9 coupled with biotin and then detected with Streptavidine-phycoerythrin conjugate (ST-PE, FL2). The markings are produced by incubating for 30 minutes with 0.5 μg of each antibody per million cells. The analysis is performed after washing on a FACScalibur-SORT cell analyser-sorter cytofluorimeter (Becton Dickinson, Mountain View, Calif.). The results are processed using Cellquest software.
FIG. 2A gives the profile (size FSC and granularity SSC) of the cells studied. […] FIGS. 2D to 2L show a PBMC after 5 days in culture in the presence of the molecule tested.

[2] = tested on: Human peripheral blood lymphocytes (PBMC); experiment: Human peripheral blood T lymphocyte proliferation activation (3H-thymidine incorporation, stimulation index); conditions: concentrations 0.001 μM to 500 μM, 4 days then 24 hours 3H-TdR, FIG. 1
Method: Human peripheral blood lymphocytes (PBMC) are isolated from donors' by centrifugation on Ficoll-Hypaque. They are then placed in culture in 96-well plates at a rate of 2.10^6 cells/ml in 200 μl of RPMI 1640 medium (Gibco) containing 10% foetal calf serum or human AB serum, 20 mM of Glutamine, 10 mM Hepes, 1 mM of sodium pyruvate, 10 μg/ml of penicillin-streptomycin. The molecules under test are then added at final concentrations ranging from 0.001 μM to 500 μM. Each condition is produced in triplicate. The molecules are diluted in isotonic phosphate buffer (PBS). The cells are then incubated at 37° C.-5% CO2 for 4 days. Cell proliferation is then determined by measuring the incorporation of thymidine ^3H (^3H-TdR). For this, 0.5 μCi of ^3H-TdR is added per culture. After 24 hours, the cells are retrieved on Cell Harvester (Packard Instruments) and the radioactivity incorporated in high molecular weight material is counted using a Rack-Beta counter (Packard).
The stimulation indices are evaluated as follows:
In all the experiments, isoprenyl pyrophosphonate (IPP) is selected as the reference.

[3] = Stability in human AB serum followed by phosphorus 31 NMR; conditions: three days of incubation; for degradation of the molecule after incubation in serum: human AB serum, 31P NMR
Method: To 0.5 ml of each solution, 500 μl of human AB serum was added and the mixture were left to incubate. After three days of incubation, the degradation of the molecule is measured by phosphorus 31 NMR.

[4] = tested on: human γ9δ2 T lymphocytes; conditions: in vitro; literature (Tanaka et al. 1994; Kunzmann et al. 2000); cited from earlier work
[5] = 0.1 mole/liter in D2O, 0.5 ml + 500 μl human AB serum

| Compound | Vγ9/Vδ2 T cell population in stimulated cultures [1] | inducing T lymphocyte proliferation (proliferation index) compared with IPP [2] | γ9δ2 T lymphocyte proliferation [4] | also measured |
| --- | --- | --- | --- | --- |
| 5-pyrophosphono-2-methylpent-2-ene [Compound M4] | high increase | more effective than IPP |  |  |
| 5-pyrophosphono-2-methylpentene [Compound M6] | high increase | more effective than IPP |  |  |
| 5-triphosphono-2-methylpentene [Compound M7] | high increase | more effective than IPP |  |  |
| C=C(C)CCO[P@@](=O)(O)OP(=O)(O)O [IPP, isopentenyl pyrophosphate, reference compound] |  |  |  | integral of the 31P NMR peak of the intact molecule [3, 5]: 1.2; degradation of the molecule after incubation in serum [3]: significant degradation |
| NCCCC(O)(P(=O)(O)O)P(=O)(O)O [alendronate] |  |  | stimulants of γ9δ2 T lymphocyte proliferation |  |
| CCCCCN(C)CCC(O)(P(=O)(O)O)P(=O)(O)O [ibandronate] |  |  | stimulants of γ9δ2 T lymphocyte proliferation |  |
| CCOP(=O)(O)O [monoethylphosphate] |  |  | induce in vitro, the proliferation of γ9δ2 T lymphocytes |  |
| NCCC(O)(P(=O)(O)O)P(=O)(O)O [pamidronate] |  |  | stimulants of γ9δ2 T lymphocyte proliferation |  |
| (E) 1-pyrophosphono-4-methylpenta-1,3-diene [Compound M1] | high increase | more effective than IPP |  |  |
| (E) 1-pyrophosphono-buta-1,3-diene [Compound M3] | high increase | more effective than IPP |  |  |
| (E) 1-pyrophosphono-penta-1,3-diene [Compound M2] | high increase | more effective than IPP |  |  |
| isopentenyl pyrophosphonate [IPPN] |  |  |  | integral of the 31P NMR peak of the degradation product (isoprenyl phosphate / isoprenyl phosphonate) [3, 5]: 1.1; integral of the 31P NMR peak of the intact molecule [3, 5]: 96; degradation of the molecule after incubation in serum [3]: changed negligibly |
| α,γ-di-[4-methylpent-4-enyl]-triphosphonate [Compound M5] | high increase | more effective than IPP |  |  |
